Experiments:
Marchantia polymorpha = settings: stated as known, like liverworts in general; cited from earlier work
[1] = test system: wild type Marchantia plants; assay: Lethal concentration determination: Marchantia spores plated on Johnson's medium agar supplemented with herbicide, 14-day old sporelings; type: in vivo, Marchantia polymorpha
Protocol: A lethal concentration of the herbicide hit was determined in the condition of the mutagenesis concentration. 20000 Marchantia spores were plated in 90 mm Petri dishes containing 25 mL of Johnson's medium containing 1.4% agar and supplemented with a range of herbicide hit concentrations ranging from 1 to 50000 nM. The lethal concentration was defined as the minimum concentration of herbicide hit sufficient to kill 100% of the wild type Marchantia plants (FIG. 11).
If no lethal concentration was observed, the highest concentration would be used in place of the lethal concentration provided that it caused the plants to show a phenotype distinct from the phenotype of untreated plants. For example, this alternative phenotype may be a strong reduction in growth (FIG. 12) or a marked change in the shape of the plants, or a change in plant pigmentation.
Marchantia polymorpha spores were irradiated with ultraviolet B irradiation and seven independent mutant lines resistant to the herbicide chlorsulfuron were identified. Chlorsulfuron resistance was determined by a Marchantia polymorpha plant that was alive two weeks following exposure to a lethal dose of Chlorsulfuron (0.1 ppm dose, i.e. a dose sufficient to kill 100% of wild-type plants).

[2] = 1000 μM herbicide, 14-day old sporelings in Petri dishes, three replicates

In the case of CP(=O)(O)CCC(N)C(=O)O (stereo not drawn) [glufosinate], the “sensitivity of Marchantia polymorpha to the herbicide” value (Marchantia polymorpha) is listed as “insensitive”.

In the case of CNc1cnn(-c2cccc(C(F)(F)F)c2)c(=O)c1Cl [Norflurazon], the survival of sporelings [1, 2] is reported as “have all died”.

For O=C(O)CNCP(=O)(O)O [glyphosate], the “sensitivity of Marchantia polymorpha to the herbicide” value (Marchantia polymorpha) is given as “insensitive”.

In the case of COc1nc(C)nc(NC(=O)NS(=O)(=O)c2ccccc2Cl)n1 [Chlorsulfuron], the growth of sporelings [1, 2] is reported as “marked reduction in growth”, the survival of sporelings [1, 2] is reported as “have not all died” and the “lethal dose (dose sufficient to kill 100% of wild-type plants)” value ([1]; wild-type Marchantia polymorpha, two weeks following exposure) is reported as 0.1 ppm.
